According to patent US4440757A, “Pharmaceutical composition comprising derivative of aminobenzoic acid for regulating prostaglandin” (priority 1978, dated 1984):

Tests used:
Sato's lung cancer = test: Translocation of dye-staff to Sato's lung cancer; format: in vivo, donryu rat; conditions: 1000 mg/kg p.o. once; control 30.0
Method: On the back of a donryu rat, a lump of Sato's lung cancer of 5 mm in size was subcutaneously transplanted.
(§1) On the axillary part of an ICR mouse, 10^6 cells of sarcoma 180 were subcutaneously transplanted. While feeding the both animals, the present substance, Specimen No. 7, was forcibly administered orally once at a rate of 1000 mg/kg on 16th day of the transplantation and an aqueous 2% solution of Lissamine Green (a dye-staff manufactured by Imperial Chem. Ind. Co.) was injected into the caudal vein of the animal at a rate of 1 ml for a rat and 0.5 ml for a mouse.
(§2) After one hour of the injection, the animal was sacrificed to extirpate the proliferated tumour. The tumour of the rat was finely cut and homogenized with an aqueous 50% solution of ethanol. After diluting the homogenate with an addition of the solution to a total volume of 50 ml, the liquid was centrifugated for 15 min at 1000 rpm to separate the supernatant liquid. The content of the dye-staff was determined on the supernatant liquid itself or after dilution by spectrophotometry using its absorption maximum of 630 nm.

sarcoma 180 = test: Translocation of dye-staff to sarcoma 180 (visual); format: in vivo, ICR mouse; conditions: 1000 mg/kg p.o. once
Method: as §1, §2

[1] = tested on: spontaneously hypertensive (SHR) male rats; test: Effect of indomethacin on the hypotensive action; format: in vivo, rat (SHR); conditions: 100 mg/kg p.o.; indomethacin 2.5 mg/kg before and after
Source text: It is known that PGs are produced from arachidonic acid, and cyclooxygenase participates in the conversion of arachidonic acid to PGG2, that indomethacin inactivates the above-mentioned cyclooxygenase and further that the […] of PGs is completely stopped by the administration of indomethacin.
Accordingly, the transition of blood pressure of the spontaneously hypertensive (SHR) male rats 30 to 40 weeks after birth was compared in both cases (1) where only the present substance was administered at a rate of 100 mg/kg and (2) where indomethacin was administered 2 times at a rate of 2.5 mg/kg/time before and after the administration of the present substance. The present substance, Specimen No. 7, was dissolved into distilled water or dispersed in an aqueous 2% solution of carboxymethylcellulose, and forcibly administered orally. Indomethacin was dispersed in an aqueous 2% solution of carboxymethylcellulose, and the dispersion was also forcibly administered orally, one hour before and after the administration of the present substance.

[2] = tested on: HeLa S3 cultured cells of human uterine cancer; test: PGE in culture medium of human uterine cancer cells; format: cell-based; conditions: for Concentration of PGE after culture: 2 days, control 312; for Change of Concentration of PGE during culture: control +120
Method: To each 10 ml of a culture medium prepared by adding 10% bovine foetal serum and one of the present substance, Specimen No. 7, at a concentration of 0 (control), 10, 100, 500, 1,000 or 5,000 μg/ml to Eagle's culture medium and placed in a polystyrene flask of 75 cm^2 in bottom surface, HeLa S3 cultured cells of human uterine cancer were inoculated at a rate of 5×10^5 cells/flask and cultured at 37° C. for 2 days under a mixed atmosphere of 5% by volume of gaseous carbon dioxide and 95% by volume of air. After the incubation was over, the whole cultured medium was centrifugated at a temperature of 4° C. at 1,500 rpm to obtain a supernatant liquid of the cultured medium. The content of PGE in the supernatant liquid was determined by ^3 H-Prostaglandin E Radioimmunoassay Kit.

Ehrlich cancer cells [3] = test: PGE in Ehrlich tumour tissue and tumour proliferation (i.p.); format: in vivo, female C57BL/6 mouse; conditions: 100 mg/kg i.p. every other day, 14th day
Method: Ehrlich cancer cells were transplanted subcutaneously to groups of female C57BL/6 mouse after 9 weeks of birth at a rate of 1×10^6 and while feeding the mice, the present substance, Specimen No. 7, was intraperitoneally administered to the mice every other day from the next day of the transplantation at a rate of 100 mg/kg. On 14th day of the transplantation, the mice were sacrificed with ether to extirpate the tumor tissue. After homogenizing the tumour tissue finely cut by scissors with the addition of 7 ml of methanol per gram of the tumour tissue at a temperature of 0° C., the homogenate was filtered with filter paper to obtain a filtrate. After adding 2 times by volume of chloroform to the filtrate, the mixture was well mixed and left for 30 min at 4° C. Then, the cooled mixture was subjected to the same procedures as in Example 11 to determine the content of PGE in the tumour tissue. The content of PGE in the tumour tissue was larger in the animal transplanted with the cancer cells and administered with the present substance than in the control transplanted with the same cancer cells but not administered with the present substance. This face gives an information concerning the participation of the present substance in the metabolism of PGs.

Ehrlich cancer cells [4] = test: PGE in cancer cells and ascites of mouse transplanted with Ehrlich cancer cells; format: in vivo, female ICR-JCL mouse; conditions: 200 mg/kg/day i.p., 5 days
Method: To groups of female ICR-JCL mouse after 5 weeks of her birth, Ehrlich cancer cells were intraperitoneally transplanted at a rate of 1×10^6 cells/animal and one of the present substances, Specimen No. 7 was administered intraperitoneally to the mice every day from the next day of transplantation for 5 days at a rate of 200 mg/kg/day. The mice were sacrificed with ether on the 6th day of transplantation, and the ascites were collected. After adding tetrasodium ethylenediamminetetraacetate with 1% by weight of aspirin into the ascites, it was centrifugated for 10 min at 1500 rpm and a temperature of 4° C. to separate the cancer cells and the supernatant liquid. The supernatant liquid was further centrifugated at 4° C. and 3000 rpm for 15 min. The separated cancer cells was washed with Hank's solution, and was subjected to centrifugation 5 times at 800 rpm for each 5 min to remove impurities such as erythrocytes, etc. The thus purified cancer cells of 1×10^8 in number were homogenized at 0° C. after addition of 7 ml of methanol, and the homogenate was filtered with filter paper. After adding 14 ml of chloroform to the filtrate and mixing, the mixture was left for 30 min at a temperature of 4° C. […] The content of PGE in the solution and in the supernatant liquid of the ascites was determined by ^3 H-ProstaglandinE Radioimmunoassay Kit. […]

Q: For O=C(O)c1ccc(NC2OC[C@@H](O)[C@H](O)[C@H]2O)cc1 (stereo partly drawn) [Specimen No. 7, Sodium p-aminobenzoate-N--D-xyloside], which Amount of dye-staff (Sato's lung cancer) is on record?
A: Its Amount of dye-staff is 51.0 μg/g tumour.

Q: What about the “sedimentation of the dye-staff in the central part of the tumour (visual)” value (sarcoma 180) of the same compound?
A: Its value is “remarkable sedimentation of the dye-staff in the central part of the tumour”.

Q: What about the “hypotensive effect with indomethacin (FIG. 9)” value [1] of the same compound?
A: The value was “disappeared”.

Q: And the “Concentration of PGE after culture” value ([2]; 10 μg/ml)?
A: The value was 40 pg/mL.

Q: What about the “Change of Concentration of PGE during culture” value (“Change” below) ([2]; 10 μg/ml) of the same compound?
A: Its value is -152 pg/mL.

Q: What about the “Concentration of PGE after culture” value ([2]; 100 μg/ml) of the same compound?
A: Its value is 80 pg/mL.

Q: What about the “Change” value ([2]; 100 μg/ml) of the same compound?
A: Its value is -112 pg/mL.

Q: And the “Concentration of PGE after culture” value ([2]; 500 μg/ml)?
A: The value was 48 pg/mL.

Q: And the “Change” value ([2]; 500 μg/ml)?
A: Its value is -144 pg/mL.

Q: And the “Concentration of PGE after culture” value ([2]; 1000 μg/ml)?
A: Its value is 25 pg/mL.

Q: And the “Change” value ([2]; 1000 μg/ml)?
A: Its value is -167 pg/mL.

Q: What about the “Concentration of PGE after culture” value ([2]; 5000 μg/ml) of the same compound?
A: The value was 25 pg/mL.

Q: What about the “Change” value ([2]; 5000 μg/ml) of the same compound?
A: Its value is -167 pg/mL.

Q: And the “Weight of tumour tissue” value (Ehrlich cancer cells [3]; control 1.30)?
A: The value was 0.75 g.

Q: And the “Content of PGE in the tumour tissue” value (Ehrlich cancer cells [3]; control 1.77)?
A: The value was 3.98 ng/g.

Q: And the “Content of PGE in supernatant liquid of ascites” value (Ehrlich cancer cells [4]; control 0.26)?
A: Its value is 0.12 ng.

Q: What about the “Content of PGE in 10^8 cells” value (Ehrlich cancer cells [4]; control 2.36) of the same compound?
A: Its value is 3.06 ng.
